Reference: ChEMBL document CHEMBL3639029, “Pyrrolopyrimidine compounds as inhibitors of CDK4/6” (2015)
pIC50: −log10 of the molar value.

Assays:
[1] = target: Cyclin-dependent kinase 4 (Homo sapiens, UniProt P11802); assay: Biological Assay: An assay for monitoring CDK4/cyclin D1-catalyzed phosphorylation of pRb at the Ser780 site was performed using TR-FRET in a 384-well format, and was used for IC50 determination and kinetic analysis. The reaction was carried out in a 30 uL volume containing 0.3 nM CDK4/cyclin D1, 150 nM biotin-pRb (773-924), 3 uM ATP, and 1.3% DMSO (or compound in DMSO) in the assay buffer (50 mM HEPES-Na, pH 7.5; 5 mM MgCl2, 1 mM DTT, 0.02% Tween-20, and 0.05% BSA). 3 uM ATP was added last to initiate the reaction. The reaction was quenched with 10 uL of 240 mM EDTA-Na (pH 8.0) after 60 min incubation at 22 C. The signal was developed by the addition of 40 uL detection solution containing 40 nM SA-APC, 143 ng/mL anti-phospho-pRb (S780) antibody, and 1 nM Eu-W1024 anti-rabbit IgG antibody in the detection buffer (50 mM HEPES-Na, pH 7.5, 60 mM EDTA-Na, pH 8.0, 0.05% BSA, and 0.1% Triton X-100). After 60 min incubation in the dark, the plate was read on Envision.
Cyclin-dependent kinase 4, sequence (P11802 whole entry): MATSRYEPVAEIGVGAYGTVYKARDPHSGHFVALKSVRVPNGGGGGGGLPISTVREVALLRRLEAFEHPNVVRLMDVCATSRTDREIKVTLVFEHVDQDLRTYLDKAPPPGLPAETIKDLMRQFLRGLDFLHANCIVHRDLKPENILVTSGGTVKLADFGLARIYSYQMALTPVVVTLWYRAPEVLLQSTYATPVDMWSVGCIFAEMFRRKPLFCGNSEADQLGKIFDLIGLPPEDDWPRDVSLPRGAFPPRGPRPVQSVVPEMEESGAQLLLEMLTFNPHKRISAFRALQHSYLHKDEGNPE

[2] = target: Cyclin-dependent kinase 1 (Homo sapiens, UniProt P06493); assay: IMAP-FP (Molecular Devices Trade Mark Technology) Endpoint Assay: A 384-well microtiter IMAP-FP (Molecular Devices Trade Mark Technology) endpoint assay was used for CDK1/cyclin B kinase activity measurements. The same assay was used for IC50 determination of small molecule inhibitors. In general, the kinase reactions were carried out in 20 uL volumes in the reaction solution, which is composed of 2 uL compound (in 20% DMSO), 8 uL CDK1/cyclin B in the 1x Reaction Buffer (Molecular Devices, Cat. No. R8139), 10 uL substrate mixture of Tamra Histone-H1 peptide (Molecular Devices, Cat. No. R7384) and ATP (Amersham Pharmacia, Cat. No. 27-2056-01) in the 1x Reaction Buffer with 1 mM DTT freshly added. The final reaction mixture contains compound (inhibitor) with the concentration varying from 0.005-10 uM, 2% DMSO, 0.25 nM CDK1/cyclin B, 100 nM Tamra Histone-H1 peptide, and 20 uM ATP.All reactions were run at room temperature in black 384-well flat-bottom Costar plates (Corning, Cat. No. 3710) for 120 min then were quenched.
Cyclin-dependent kinase 1, sequence (P06493 whole entry): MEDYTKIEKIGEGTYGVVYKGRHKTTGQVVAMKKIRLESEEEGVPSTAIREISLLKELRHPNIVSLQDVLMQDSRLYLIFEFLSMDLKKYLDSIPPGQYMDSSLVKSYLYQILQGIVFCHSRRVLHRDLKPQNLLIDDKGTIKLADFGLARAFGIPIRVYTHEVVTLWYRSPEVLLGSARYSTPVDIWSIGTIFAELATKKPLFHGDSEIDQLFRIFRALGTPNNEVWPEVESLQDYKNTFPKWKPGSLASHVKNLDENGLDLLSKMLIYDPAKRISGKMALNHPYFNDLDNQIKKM

CN(C)C(=O)c1cc2cnc(Nc3ccc(N4CC5CCC(CC4=O)N5)cn3)nc2n1-c1ccc(C(C)(C)C#N)cc1 (configuration not stated)
pIC50 [1]: 8.30
pIC50 [2]: < 4.82
